How the values were obtained:
[1] = system: mice with SMA; settings: reported by Van Meerbeke, Gibbs et al.; cited from earlier work
[2] = target: T1, Dcp1/2 decapping enzyme (SpDcp1/2) (Schizosaccharomyces pombe, UniProt O13828); test: Susceptibility of short capped RNAs to degradation with the Dcp1/2 enzyme; type: biochemical; settings: RNA capped with the analog; 3.5 nM Dcp1/2, time point 15 min, normalized to 0′ time
T1 construct: made in house
T1 sequence (O13828 1-243 limits assumed): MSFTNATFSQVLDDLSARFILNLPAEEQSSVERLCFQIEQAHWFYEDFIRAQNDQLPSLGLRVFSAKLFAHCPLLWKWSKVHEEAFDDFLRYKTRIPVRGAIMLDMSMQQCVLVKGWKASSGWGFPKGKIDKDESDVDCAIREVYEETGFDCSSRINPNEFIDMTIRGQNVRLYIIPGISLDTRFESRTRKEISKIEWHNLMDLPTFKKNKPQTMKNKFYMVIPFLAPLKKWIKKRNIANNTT
T1 sequence (Q9P805 1-127 partner): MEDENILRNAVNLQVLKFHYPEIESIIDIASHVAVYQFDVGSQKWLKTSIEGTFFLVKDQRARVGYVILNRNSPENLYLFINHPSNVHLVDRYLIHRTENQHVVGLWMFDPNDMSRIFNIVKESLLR
Description: Test 4. Susceptibility Study of Short RNA Molecules Comprising Cap Analogs at the 5′ End to Degradation with the Dcp1/2 Enzyme.
The aim of this study was to check whether incorporation of selected 5′-phosphothioate cap analogs to 5′ end of RNA could influence susceptibility of thus prepared transcripts towards Dcp1/2 decapping enzyme activity. Schizosaccharomyces pombe recombinant protein in the form of a heterodimer Dcp1/2 was obtained as described previously (Floor, Jones et al. 2010). The trancripts utilized in this assay were obtained by transcription in vitro using RNA SP6 polymerase (New England BioLabs). Annealed oligonucleotides: […] (SEQ ID NO.: 1), and […] (SEQ ID NO: 2) were used as a template in in vitro transcription, the oligonucleotides comprising the promoter sequence for SP6 polymerase (ATTTAGGTGACACTATAGA (SEQ ID NO: 3)) allow to obtain 35 nt long RNAs having a sequence of […] (SEQ ID NO: 4), however 5′ end capped RNAs are 36 nt long. Typical in vitro transcription reaction was performed in volume 20 μl and was incubated in 40° C. for 2 hours and contained the following: 1U SP6 polymerase, 1 U RiboLock RNase Inhibitor (ThermoFisher Scientific), 0.5 mM ATP/CTP/UTP, 0.125 mM GTP, 1.25 mM dinucleotide cap analog and 0.1 μM template. Following 2 hours incubation, 1U DNase I (Ambion) was added to the reaction mixture and incubation was continued for 30 min in 37° C., after that EDTA was added to 25 mM final concentration. Obtained RNAs were purified using RNA Clean & Concentrator-25 (Zymo Research). Then the quality of the synthesized RNA was determined on a denaturating 15% polyacrylamide gel. The concentration of the RNA was in turn evaluated spectrophotometrically. […] RNA having a cap at the 5′ end was 26 nt long. The reaction of cleaving the 3′ ends was as follows: 1 μM of RNA was incubated with 1 μM of DNazyme 10-23 in a mixture containing 50 mM MgCl2 and 50 mM Tris-HCl pH 8.0 for 1 hour in 37° C. (Coleman et al., 2004).
For enzymatic tests 20 ng of each RNA was used, which were incubated with 3.5 nM Dcp1/2 enzyme in buffer containing 50 mM Tris-HCl pH 8.0, 50 mM NH4Cl, 0.01% NP-40, 1 mM DTT, and 5 mM MgCl2. Reactions were performed at 37° C. in the final volume of 25 μl. The reaction was stopped after 0, 5, 15 and 30 min by adding an equal amount of a mixture of 5 M urea, 44% formamide, 20 mM EDTA, 0.03% bromophenol blue, 0.03% xylene cyanol. Reaction products were resolved on denaturing 15% polyacrylamide gels, after the electrophoretic separation was completed, the gel was stained with SYBR Gold (Invitrogen) and visualized using a Storm 860 PhosphorImager (GE Healthcare). Quantification of the obtained results was performed with ImageQuant software (Molecular Dynamics). Representative results of this assay were presented on FIG. 8, FIG. 9 and also in Table 6.

[3] = system: rabbit reticulocyte lysate; test: Translational efficiency of capped Renilla luciferase mRNAs in rabbit reticulocyte lysate; type: biochemical; settings: Renilla luciferase mRNA capped with the analog; normalized to m^7GpppG-capped mRNA; biological triplicates
Protocol: Test 5. Study on the Effect of the Presence of Novel Cap Analogs on Translational Efficiency of mRNAs in Rabbit Reticulocyte Lysate.
The aim of this study was to check the effect of introducing novel cap analogs at the 5′ end of mRNAs on translation efficiency. For this purpose series of Renilla luciferase encoding mRNAs, and differing in the cap structure at the 5′ end were prepared. The transcripts used for this test were obtained by in vitro transcription reaction using SP6 RNA polymerase. As the template for the in vitro transcription a PCR product was used, prepared using primers […] (SEQ ID NO: 6) and […] (SEQ ID NO: 7) and the hRLuc-pRNA2(A)128 plasmid (Williams et al. 2010). PCR reaction thus conducted allowed to introduce promoter sequence for SP6 polymerase upstream of the sequence encoding Renilla luciferase. The transcription reaction itself was similar to the short RNA synthesis described above (Test 4). The reaction was conducted for 2 hours in 20 μl in 40° C. and contained the following: 1U SP6 polymerase, 1 U RiboLock RNase Inhibitor (ThermoFisher Scientific), 0.5 mM ATP/CTP/UTP, 0.125 mM GTP, 1.25 mM dinucleotide cap analog and […] of a template. Following 2 hours incubation, 1U DNase I (Ambion) was added and incubation was continued for 30 min in 37° C., after that EDTA was added to 25 mM final concentration. Obtained mRNAs were purified using NucleoSpin RNA Clean-up XS (Macherey-Nagel). Quality of the synthetized RNA was checked on a denaturing 15% polyacrylamide gel. The RNA concentrations were determined spectrophotometrically.
An in vitro translation reaction was performed in rabbit reticulocyte lysate (RRL, Promega) in conditions determined for cap-dependent translation (Rydzik et al., 2009). A typical reaction mixture (10 μl) contained: 40% RRL lysate, 0.01 mM mixture of amino acids (Promega), 1.2 mM MgCl2, 170 mM potassium acetate and a Renilla luciferase encoding mRNA with an appropriate cap analog at the 5′ end, the mixture being incubated in 37° C. for 1 hour. Four different concentrations of mRNAs: 0.1 ng/μl, 0.25 ng/μl, 0.5 ng/μl, 0.75 ng/μl were used in the experiment. Activity of synthesized luciferase was measured using Dual-Luciferase Reporter Assay System (Promega) in a microplate reader Synergy H1 (BioTek). Obtained results were analyzed in Origin (Gambit) software, and theoretical curve was fitted to experimental data, wherein the slope of obtained curve represents translation efficiency. Representative data were presented on FIG. 10, whereas average translation efficiency obtained for biological triplicates is presented in Table 6.

[4] = target: T2, human DcpS enzyme (hDcpS) (Homo sapiens, UniProt Q96C86); test: Susceptibility of cap analogs to degradation by DcpS enzyme (RP-HPLC); type: biochemical; settings: cap analog 20 μM, hDcpS 100 nM, RP-HPLC
T2 construct: made in house
T2 sequence (Q96C86 1-337): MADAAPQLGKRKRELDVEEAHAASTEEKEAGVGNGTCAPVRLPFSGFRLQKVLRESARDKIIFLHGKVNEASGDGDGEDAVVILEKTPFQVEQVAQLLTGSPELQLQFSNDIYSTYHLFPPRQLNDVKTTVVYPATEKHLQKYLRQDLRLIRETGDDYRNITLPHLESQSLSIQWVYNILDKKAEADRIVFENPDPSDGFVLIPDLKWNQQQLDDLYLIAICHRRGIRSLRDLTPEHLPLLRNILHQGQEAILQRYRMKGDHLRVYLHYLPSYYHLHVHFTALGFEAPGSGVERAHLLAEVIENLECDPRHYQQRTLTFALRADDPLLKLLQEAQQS
Protocol: Test 1. The Susceptibility Study of Analogs to Degradation by DcpS Enzyme.
The aim of the test was to check if new 5′-thiophosphate cap analogs are hydrolyzed by human DcpS enzyme (hDcpS). Recombinant human protein encoding DcpS enzyme was expressed as described previously (Kowalska, Lewdorowicz et al. 2008). The susceptibility of new analogs to hDcpS hydrolysis is tested in 50 mM Tris-HCl buffer containing 200 mM KCl and 0.5 mM EDTA. Reaction mixture includes the tested cap analog (20 μM) and hDcpS enzyme (100 nM) in 400 μl of buffer. At the appropriate intervals 100 μl sample is collected from the reaction mixture. Sample is incubated at 98° C. for 2.5 min, and then cooled to 0° C. and analyzed on RP-HPLC under conditions described in general informations. In tests also commercially available inhibitor of DcpS was tested, the compound RG3039 (no. 000) (https://www.mda.org/quest/fda-approves-phase-1-clinical-trial-rg3039-sma), GppSG (no. 19), GpppSG (no. 20), as well m^7GpppG (no. 0) and m^7Gpp (no. 00) as controls. Exemplary results obtained are shown on FIG. 5 and Table 5.

| Compound | motor function in mice with SMA [1] | Dcp1/2 susceptibility [2] | relative translation efficiency [3] | DcpS susceptibility [4] |
| --- | --- | --- | --- | --- |
| Nc1nc(N)c2c(OCC3CCN(Cc4c(Cl)cccc4Cl)CC3)cccc2n1 [No. 000] | improves motor function |  |  |  |
| Nc1nc2c(ncn2[C@@H]2O[C@H](COP(=O)(O)OP(=O)(O)OP(=O)(O)OC[C@H]3O[C@@H](n4cnc5c(=O)[nH]c(N)nc54)[C@H](O)[C@@H]3O)[C@@H](O)[C@H]2O)c(=O)[nH]1 [GpppG] |  | 0 | 0.05 ± 0.01 |  |
| CO[C@@H]1[C@H](O)[C@@H](COP(=O)(O)OP(=O)([O-])OP(=O)(O)OC[C@H]2O[C@@H](n3cnc4c(=O)[nH]c(N)nc43)[C@H](O)[C@@H]2O)O[C@H]1n1c[n+](C)c2c(O)nc(N)nc21 [m2^7,2′-oGpppG] |  | 0.52 | 1.56 ± 0.14 |  |
| COC1C(O)[C@@H](CSP(=O)([O-])OP(=O)(O)OP(=O)(O)OC[C@H]2O[C@@H](n3cnc4c(=O)[nH]c(N)nc43)C(O)C2O)O[C@H]1n1c[n+](C)c2c(O)nc(N)nc21 (some centres unmarked) [No. 26, P1-(2′-O-methyl-7-methyl-5′-deoxy-5′-thioguanosin-5′-yl)-P3-guanosin-5′-yl triphosphate] |  | 0.07 | 1.73 ± 0.24 |  |
| COC1C(O)C(COP(=O)(O)OP(=O)(S)OP(=O)(O)OCC2OC(n3cnc4c(=O)[nH]c(N)nc43)C(O)C2O)OC1n1c[n+](C)c2c(=O)[nH]c(N)nc21 (centres unmarked) [m2^7,2′-oGppspG D2] |  | 0.43 | 3.45 ± 0.42 |  |
| COC1C(O)[C@@H](COP(=O)(O)OP(=O)(O)OP(=O)([O-])SC[C@H]2O[C@@H](n3cnc4c(=O)[nH]c(N)nc43)C(O)C2O)O[C@H]1n1c[n+](C)c2c(O)nc(N)nc21 (some centres unmarked) [No. 38, P1-(2′-O-methyl-7-methyl-guanosin-5′-yl)-P3-(5′-deoxy-5′-thioguanosin-5′-yl) triphosphate] |  | 0.52 | 2.23 ± 0.31 |  |
| Cn1c[n+]([C@@H]2O[C@H](COP(=O)(O)OP(=O)([O-])OP(=O)(O)OC[C@H]3O[C@@H](n4cnc5c(=O)[nH]c(N)nc54)[C@H](O)[C@@H]3O)[C@@H](O)[C@H]2O)c2nc(N)[nH]c(=O)c21 [No. 0] |  | 0.69 | 1.00 | hydrolyzable |

Source: patent publication US11066436B2, “5′-phosphorothiolate mRNA 5′-end (cap) analogs, mRNA comprising the same, method of obtaining and uses thereof” (Uniwersytet Warszawski, priority 2016, dated 2021)
